# Measurements taken from US8680159B2, “Bradykinin 1 receptor modulating compounds” (Gruenenthal GmbH, priority 2010, dated 2014).
# Molecular target: T1, B1R receptor of the rat (CHO K1 cells stably transfected with the B1R gene of the rat) (Rattus norvegicus, UniProt P97583)
# T1 construct: expressed in transfected cells; host or cells: CHO K1 cells (Chinese hamster ovary), stably transfected
# T1 sequence (P97583 1-337): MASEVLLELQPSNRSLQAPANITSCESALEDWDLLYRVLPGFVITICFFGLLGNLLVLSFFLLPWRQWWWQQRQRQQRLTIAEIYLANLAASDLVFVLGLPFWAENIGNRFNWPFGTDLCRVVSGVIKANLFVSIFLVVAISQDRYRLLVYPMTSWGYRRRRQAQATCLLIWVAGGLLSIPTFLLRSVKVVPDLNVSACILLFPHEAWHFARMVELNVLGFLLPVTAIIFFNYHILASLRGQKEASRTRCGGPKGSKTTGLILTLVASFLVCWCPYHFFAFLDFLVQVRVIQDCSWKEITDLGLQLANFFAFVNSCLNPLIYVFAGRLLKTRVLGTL
# Experiment: Functional study on the bradykinin receptor 1 (B1R), Ca2+ fluorescence (Fluo-4) FLIPR/Novostar assay, rB1R cells
# Assay type: cell-based
# Settings: CHO-K1, 10 μM, read-out: % Inhibition (r-B1R) at 10 μM
# Method in brief: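 Stably transfected CHO K1 cells carrying human or rat B1R were Fluo-4 loaded and Ca2+ fluorescence read by FLIPR or Novostar. Compounds were added first at 10 μM for % activation, then the EC80 agonist was applied after 6-20 min (human: Lys-Des-Arg9-bradykinin; rat: Des-Arg9-bradykinin). % inhibition is relative to maximum achievable inhibition, and IC50 comes from concentration series.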
row,inhibition at 10 µM,SMILES
1,112%,"Cc1ccc(F)c(C(=O)NC2CCOc3ccc(C(=O)N(C)C4CCN(c5ccncc5)CC4)cc32)c1Cl (stereo not drawn) [CC_H-273, 4-[(2-Chloro-6-fluoro-3-methyl-benzoyl)amino]-N-methyl-N-(1-pyridin-4-yl-piperidin-4-yl)-3,4-dihydro-2H-chromene-6-carboxylic acid amide]"
2,91%,"CN(C(=O)c1ccc2c(c1)C(NC(=O)C1CC1)CCO2)C1CCN(c2ccncc2)CC1 (stereo not drawn) [CC_H-274, 4-(Cyclopropanecarbonylamino)-N-methyl-N-(1-pyridin-4-yl-piperidin-4-yl)-3,4-dihydro-2H-chromene-6-carboxylic acid amide]"
3,111%,"CN(C(=O)c1ccc2c(c1)C(NC(=O)CC(C)(C)C)CCO2)C1CCN(c2ccncc2)CC1 (stereo not drawn) [CC_H-275, 4-(3,3-Dimethyl-butanoylamino)-N-methyl-N-(1-pyridin-4-yl-piperidin-4-yl)-3,4-dihydro-2H-chromene-6-carboxylic acid amide]"
4,51%,"COCC(=O)NC1CCOc2ccc(C(=O)N(C)C3CCN(c4ccncc4)CC3)cc21 (stereo not drawn) [CC_H-276, 4-[(2-Methoxy-acetyl]amino]-N-methyl-N-(1-pyridin-4-yl-piperidin-4-yl)-3,4-dihydro-2H-chromene-6-carboxylic acid amide]"
5,75%,"CN(C(=O)c1ccc2c(c1)C(NC(=O)Nc1cc(C(F)(F)F)ccc1Cl)CCO2)C1CCN(c2ccncc2)CC1 (stereo not drawn) [CC_H-285, 4-[[[2-Chloro-5-(trifluoromethyl)-phenyl]-carbamoyl]amino]-N-methyl-N-(1-pyridin-4-yl-piperidin-4-yl)-3,4-dihydro-2H-chromene-6-carboxylic acid amide]"
6,77%,"CN(C(=O)c1ccc2c(c1)C(NC(=O)Nc1ccc(F)c(Cl)c1)CCO2)C1CCN(c2ccncc2)CC1 (stereo not drawn) [CC_H-289, 4-[[(3-Chloro-4-fluoro-phenyl)-carbamoyl]amino]-N-methyl-N-(1-pyridin-4-yl-piperidin-4-yl)-3,4-dihydro-2H-chromene-6-carboxylic acid amide]"
7,111%,"Cc1cc(N2CCC(N(C)C(=O)c3ccc4c(c3)C(NC(=O)c3cc(F)ccc3Cl)CC4)CC2)cc(C)n1 (stereo not drawn) [CC_H-294, 3-[(2-Chloro-5-fluoro-benzoyl)amino]-N-[1-(2,6-dimethyl-pyridin-4-yl)-piperidin-4-yl]-N-methyl-2,3-dihydro-1H-indene-5-carboxylic acid amide]"
8,110%,"Cc1cc(N2CCC(N(C)C(=O)c3ccc4c(c3)C(NC(=O)CC(C)(C)C)CC4)CC2)cc(C)n1 (stereo not drawn) [CC_H-299, 3-(3,3-Dimethyl-butanoylamino)-N-[1-(2,6-dimethyl-pyridin-4-yl)-piperidin-4-yl]-N-methyl-2,3-dihydro-1H-indene-5-carboxylic acid amide]"

# The next lines start with the compound.
row,SMILES,inhibition at 10 µM
1,"CN(C(=O)NC1CCCc2ccc(C(=O)N(C)C3CCN(c4ccncc4)CC3)cc21)c1ccc(Cl)cc1Cl (stereo not drawn) [CC_H-269, 8-[[(2,4-Dichlorophenyl)-methyl-carbamoyl]amino]-N-methyl-N-(1-pyridin-4-yl-piperidin-4-yl)-5,6,7,8-tetrahydro-naphthalene-2-carboxylic acid amide]",109%
2,"CN(C(=O)c1ccc2c(c1)C(NS(=O)(=O)C1CCCCC1)CCC2)C1CCN(c2ccncc2)CC1 (stereo not drawn) [CC_H-270, 8-[(Cyclohexylsulfonyl)amino]-N-methyl-N-(1-pyridin-4-yl-piperidin-4-yl)-5,6,7,8-tetrahydro-naphthalene-2-carboxylic acid amide]",110%
3,"CC(C)CC(=O)NC1CCCc2ccc(C(=O)N(C)C3CCN(c4ccncc4)CC3)cc21 (stereo not drawn) [CC_H-271, N-Methyl-8-(3-methyl-butanoylamino)-N-(1-pyridin-4-yl-piperidin-4-yl)-5,6,7,8-tetrahydro-naphthalene-2-carboxylic acid amide]",109%
4,"CN(C(=O)c1ccc2c(c1)C(NC(=O)c1cc(C(F)(F)F)ccc1Cl)CCO2)C1CCN(c2ccncc2)CC1 (stereo not drawn) [CC_H-272, 4-[[2-Chloro-5-(trifluoromethyl)-benzoyl]amino]-N-methyl-N-(1-pyridin-4-yl-piperidin-4-yl)-3,4-dihydro-2H-chromene-6-carboxylic acid amide]",112%
5,"CC(=O)NC1CCOc2ccc(C(=O)N(C)C3CCN(c4ccncc4)CC3)cc21 (stereo not drawn) [CC_H-277, 4-Acetylamino-N-methyl-N-(1-pyridin-4-yl-piperidin-4-yl)-3,4-dihydro-2H-chromene-6-carboxylic acid amide]",100%
6,"Cc1cccc(Cl)c1S(=O)(=O)NC1CCOc2ccc(C(=O)N(C)C3CCN(c4ccncc4)CC3)cc21 (stereo not drawn) [CC_H-278, 4-[[(2-Chloro-6-methyl-phenyl)sulfonyl]amino]-N-methyl-N-(1-pyridin-4-yl-piperidin-4-yl)-3,4-dihydro-2H-chromene-6-carboxylic acid amide]",103%
7,"CN(C(=O)c1ccc2c(c1)C(NC(=O)c1cccc(C(F)(F)F)c1Cl)CCO2)C1CCN(c2ccncc2)CC1 (stereo not drawn) [CC_H-279, 4-[[2-Chloro-3-(trifluoromethyl)-benzoyl]amino]-N-methyl-N-(1-pyridin-4-yl-piperidin-4-yl)-3,4-dihydro-2H-chromene-6-carboxylic acid amide]",111%
8,"CN(C(=O)c1ccc2c(c1)C(NC(=O)Nc1ccccc1Cl)CCO2)C1CCN(c2ccncc2)CC1 (stereo not drawn) [CC_H-280, 4-[[(2-Chlorophenyl)-carbamoyl]amino]-N-methyl-N-(1-pyridin-4-yl-piperidin-4-yl)-3,4-dihydro-2H-chromene-6-carboxylic acid amide]",91%
9,"CN(C(=O)c1ccc2c(c1)C(NC(=O)Nc1cccc(Cl)c1)CCO2)C1CCN(c2ccncc2)CC1 (stereo not drawn) [CC_H-281, 4-[[(3-Chlorophenyl)-carbamoyl]amino]-N-methyl-N-(1-pyridin-4-yl-piperidin-4-yl)-3,4-dihydro-2H-chromene-6-carboxylic acid amide]",99%
10,"CN(C(=O)c1ccc2c(c1)C(NC(=O)Nc1cccc(Cl)c1Cl)CCO2)C1CCN(c2ccncc2)CC1 (stereo not drawn) [CC_H-282, 4-[[(2,3-Dichloro-phenyl)-carbamoyl]amino]-N-methyl-N-(1-pyridin-4-yl-piperidin-4-yl)-3,4-dihydro-2H-chromene-6-carboxylic acid amide]",102%
11,"CN(C(=O)c1ccc2c(c1)C(NC(=O)Nc1cc(Cl)ccc1Cl)CCO2)C1CCN(c2ccncc2)CC1 (stereo not drawn) [CC_H-283, 4-[[(2,5-Dichloro-phenyl)-carbamoyl]amino]-N-methyl-N-(1-pyridin-4-yl-piperidin-4-yl)-3,4-dihydro-2H-chromene-6-carboxylic acid amide]",106%
12,"CN(C(=O)c1ccc2c(c1)C(NC(=O)Nc1ccc(Cl)cc1Cl)CCO2)C1CCN(c2ccncc2)CC1 (stereo not drawn) [CC_H-286, 4-[[(2,4-Dichlorophenyl)-carbamoyl]amino]-N-methyl-N-(1-pyridin-4-yl-piperidin-4-yl)-3,4-dihydro-2H-chromene-6-carboxylic acid amide]",87%
13,"Cc1ccc(NC(=O)NC2CCOc3ccc(C(=O)N(C)C4CCN(c5ccncc5)CC4)cc32)cc1Cl (stereo not drawn) [CC_H-288, 4-[[(3-Chloro-4-methyl-phenyl)-carbamoyl]amino]-N-methyl-N-(1-pyridin-4-yl-piperidin-4-yl)-3,4-dihydro-2H-chromene-6-carboxylic acid amide]",69%
14,"CN(C(=O)NC1CCOc2ccc(C(=O)N(C)C3CCN(c4ccncc4)CC3)cc21)c1ccccc1Cl (stereo not drawn) [CC_H-292, 4-[[(2-Chlorophenyl)-methyl-carbamoyl]amino]-N-methyl-N-(1-pyridin-4-yl-piperidin-4-yl)-3,4-dihydro-2H-chromene-6-carboxylic acid amide]",102%
15,"CC(C)CC(=O)NC1CCOc2ccc(C(=O)N(C)C3CCN(c4ccncc4)CC3)cc21 (stereo not drawn) [CC_H-293, N-Methyl-4-(3-methyl-butanoylamino)-N-(1-pyridin-4-yl-piperidin-4-yl)-3,4-dihydro-2H-chromene-6-carboxylic acid amide]",109%
16,"Cc1cc(N2CCC(N(C)C(=O)c3ccc4c(c3)C(NC(=O)c3c(F)ccc(C)c3Cl)CC4)CC2)cc(C)n1 (stereo not drawn) [CC_H-295, 3-[(2-Chloro-6-fluoro-3-methyl-benzoyl)amino]-N-[1-(2,6-dimethyl-pyridin-4-yl)-piperidin-4-yl]-N-methyl-2,3-dihydro-1H-indene-5-carboxylic acid amide]",111%
17,"Cc1cc(N2CCC(N(C)C(=O)c3ccc4c(c3)C(NC(=O)c3cc(Cl)ccc3Cl)CC4)CC2)cc(C)n1 (stereo not drawn) [CC_H-296, 3-[(2,5-Dichloro-benzoyl)amino]-N-[1-(2,6-dimethyl-pyridin-4-yl)-piperidin-4-yl]-N-methyl-2,3-dihydro-1H-indene-5-carboxylic acid amide]",112%
18,"Cc1cc(N2CCC(N(C)C(=O)c3ccc4c(c3)C(NC(=O)C3CCCCC3)CC4)CC2)cc(C)n1 (stereo not drawn) [CC_H-297, 3-(Cyclohexanecarbonylamino)-N-[1-(2,6-dimethyl-pyridin-4-yl)-piperidin-4-yl]-N-methyl-2,3-dihydro-1H-indene-5-carboxylic acid amide]",110%
19,"Cc1cc(N2CCC(N(C)C(=O)c3ccc4c(c3)C(NC(=O)C3CC3)CC4)CC2)cc(C)n1 (stereo not drawn) [CC_H-298, 3-(Cyclopropanecarbonylamino)-N-[1-(2,6-dimethyl-pyridin-4-yl)-piperidin-4-yl]-N-methyl-2,3-dihydro-1H-indene-5-carboxylic acid amide]",101%
